Laboratory results as given in patent US20250163038A1, “CBL-B MODULATORS AND USES THEREOF” (Nimbus Clio, Inc., priority 2021, published 2025).

How the values were obtained:
[1] = system: Jurkat (clone E6-1) cells with NFAT luciferase reporter; experiment: Jurkat reporter assay (NFAT Luciferase); assay type: cell-based; details: Homo sapiens; Jurkat NFAT luciferase reporter cells, anti-CD3 stimulation, 6 hr; read-out: Jurkat NFAT EC50
[2] = molecular target: Recombinant human Cbl-b (aa 36-427) (Homo sapiens, UniProt Q13191); experiment: Cbl-b Biochemical Assay (TR-FRET); details: read-out: TR-FRET hCbl-b IC50
[3] = molecular target: T1, Recombinant human c-Cbl (aa 47-435) (Homo sapiens, UniProt P22681); experiment: c-Cbl Biochemical Assay (TR-FRET); details: hc-Cbl Biochemical Assay (TR-FRET); read-out: TR-FRET hcCbl IC50
T1 sequence (P22681 47-435): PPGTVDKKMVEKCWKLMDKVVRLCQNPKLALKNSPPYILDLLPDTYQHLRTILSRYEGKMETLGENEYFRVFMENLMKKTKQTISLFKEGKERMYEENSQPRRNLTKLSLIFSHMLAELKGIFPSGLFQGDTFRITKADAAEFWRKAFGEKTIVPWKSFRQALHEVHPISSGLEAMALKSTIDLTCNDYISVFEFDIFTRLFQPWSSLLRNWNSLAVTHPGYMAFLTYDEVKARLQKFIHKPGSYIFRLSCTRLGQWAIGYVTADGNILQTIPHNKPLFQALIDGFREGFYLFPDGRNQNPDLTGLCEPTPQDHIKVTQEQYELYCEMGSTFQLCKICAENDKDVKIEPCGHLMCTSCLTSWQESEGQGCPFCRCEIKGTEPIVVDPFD

Recombinant human Cbl-b (aa 36-427), sequence (Q13191 36-427): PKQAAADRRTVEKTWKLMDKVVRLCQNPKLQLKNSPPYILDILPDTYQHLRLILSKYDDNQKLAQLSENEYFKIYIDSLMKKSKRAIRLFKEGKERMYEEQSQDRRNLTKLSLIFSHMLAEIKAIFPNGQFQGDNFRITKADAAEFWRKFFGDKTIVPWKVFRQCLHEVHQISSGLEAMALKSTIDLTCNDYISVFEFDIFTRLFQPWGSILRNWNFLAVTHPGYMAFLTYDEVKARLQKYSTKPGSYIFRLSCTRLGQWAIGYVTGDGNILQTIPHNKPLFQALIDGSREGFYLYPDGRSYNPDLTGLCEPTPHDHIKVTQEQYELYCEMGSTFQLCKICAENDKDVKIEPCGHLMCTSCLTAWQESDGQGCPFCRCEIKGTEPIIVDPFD

## Cn1cnnc1-c1cc(F)ccc1-c1cc(-c2nc3cc(CN[C@@H]4CCC[C@@H]4O)c(F)c(F)c3o2)nc(C2CC2)c1 [AFY-2, (1S,2R)-2-{[(2-{6-Cyclopropyl-4-[4-fluoro-2-(4-methyl-1,2,4-triazol-3-yl)phenyl]pyridin-2-yl}-6,7-difluoro-1,3-benzoxazol-5-yl)methyl]amino}cyclopentan-1-ol]
[1]
  EC50: < 200 nM
[2]
  IC50: < 200 nM
[3]
  IC50: < 200 nM

## COc1cc(CN(C)[C@@H]2CCC[C@@H]2O)cc2nc(-c3cccc(-c4ccc(F)cc4-c4nncn4C)c3)oc12 [HT-3, (1S,2R)-2-(((2-(4′-Fluoro-2′-(4-methyl-4H-1,2,4-triazol-3-yl)-[1,1′-biphenyl]-3-yl)-7-methoxybenzo[d]oxazol-5-yl)methyl)(methyl)amino)cyclopentan-1-ol]
[1]
  EC50: 200 to 1000 nM
[2]
  IC50: < 200 nM
[3]
  IC50: < 200 nM

## Cn1cnnc1-c1cc(F)ccc1-c1cccc(-c2nc3cc(CN[C@@H]4CCC[C@@H]4O)cc(C(F)(F)F)c3o2)c1 [Example T-5, (1S,2R)-2-(((2-(4′-Fluoro-2′-(4-methyl-4H-1,2,4-triazol-3-yl)-[1,1′-biphenyl]-3-yl)-7-(trifluoromethyl)benzo[d]oxazol-5-yl)methyl)amino)cyclopentan-1-ol]
[1]
  EC50: 200 to 1000 nM
[2]
  IC50: < 200 nM
[3]
  IC50: 1000 to 10000 nM

## Cn1cnnc1-c1cc(F)ccc1-c1cccc(-c2cn3cc(CN[C@@H]4CCC[C@@H]4O)ccc3n2)c1 [GL-2, (1S,2R)-2-(((2-(4′-fluoro-2′-(4-methyl-4H-1,2,4-triazol-3-yl)-[1,1′-biphenyl]-3-yl)imidazo[1,2-a]pyridin-6-yl)methyl)amino)cyclopentan-1-ol]
[1]
  EC50: 10000 to 50000 nM
[2]
  IC50: 1000 to 10000 nM
[3]
  IC50: 1000 to 10000 nM

## Cn1cnnc1-c1cc(F)ccc1-c1cccc(-c2nc3ccc(CN[C@@H]4CCC[C@@H]4O)cc3o2)c1 [DD-2, (1S,2R)-2-(((2-(4′-Fluoro-2′-(4-methyl-4H-1,2,4-triazol-3-yl)-[1,1′-biphenyl]-3-yl)benzo[d]oxazol-6-yl)methyl)amino)cyclopentan-1-ol]
[1]
  EC50: 1000 to 10000 nM
[2]
  IC50: < 200 nM
[3]
  IC50: 200 to 1000 nM

## Cc1cc(CNCC2CCC2)cc2nc(-c3cc(-c4ccc(F)cc4-c4nncn4C)cc(C4CC4)n3)oc12 [AFF-1, 1-Cyclobutyl-N-((2-(6-cyclopropyl-4-(4-fluoro-2-(4-methyl-4H-1,2,4-triazol-3-yl)phenyl)pyridin-2-yl)-7-methylbenzo[d]oxazol-5-yl)methyl)methanamine]
[1]
  EC50: < 200 nM
[2]
  IC50: < 200 nM
[3]
  IC50: < 200 nM

## COCCNCc1cc(C(F)(F)F)c2oc(-c3cc(-c4ccc(F)cc4-c4nncn4C)cc(C4CC4)n3)nc2c1 [ADS-1, N-((2-(6-Cyclopropyl-4-(4-fluoro-2-(4-methyl-4H-1,2,4-triazol-3-yl)phenyl)pyridin-2-yl)-7-(trifluoromethyl)benzo[d]oxazol-5-yl)methyl)-2-methoxyethan-1-amine]
[1]
  EC50: < 200 nM
[2]
  IC50: < 200 nM
[3]
  IC50: < 200 nM

## Cn1cnnc1-c1cc(F)ccc1-c1cccc(-c2nc3cc(CNCC4(C#N)CCOCC4)cc(C(F)(F)F)c3[nH]2)c1 [CT-2, 4-((((2-(4′-Fluoro-2′-(4-methyl-4H-1,2,4-triazol-3-yl)-[1,1′-biphenyl]-3-yl)-7-(trifluoromethyl)-1H-benzo[d]imidazol-5-yl)methyl)amino)methyl)tetrahydro-2H-pyran-4-carbonitrile]
[1]
  EC50: 200 to 1000 nM
[2]
  IC50: < 200 nM
[3]
  IC50: 200 to 1000 nM

## Cn1cnnc1-c1cc(F)ccc1-c1cccc(-c2nc3cc(CNC4(CO)COC4)cc(C(F)(F)F)c3o2)c1 [Example Z-2, (3-(((2-(4′-Fluoro-2′-(4-methyl-4H-1,2,4-triazol-3-yl)-[1,1′-biphenyl]-3-yl)-7-(trifluoromethyl)benzo[d]oxazol-5-yl)methyl)amino)oxetan-3-yl)methanol]
[1]
  EC50: 1000 to 10000 nM
[2]
  IC50: < 200 nM
[3]
  IC50: 1000 to 10000 nM

## Cn1cnnc1-c1cc(F)ccc1-c1cccc(-c2nc3cc(CN[C@@H]4CCC[C@@H]4O)c(F)cc3o2)c1 [IP-7, (1S,2R)-2-(((6-Fluoro-2-(4′-fluoro-2′-(4-methyl-4H-1,2,4-triazol-3-yl)-[1,1′-biphenyl]-3-yl)benzo[d]oxazol-5-yl)methyl)amino)cyclopentan-1-ol]
[1]
  EC50: < 200 nM
[2]
  IC50: < 200 nM
[3]
  IC50: < 200 nM

## COC[C@@H](C)NCc1cc(C)c2oc(-c3cc(-c4ccc(F)cc4-c4nncn4C)cc(C4CC4)n3)nc2c1 [AGL-1, [(2-{6-Cyclopropyl-4-[4-fluoro-2-(4-methyl-1,2,4-triazol-3-yl)phenyl]pyridin-2-yl}-7-methyl-1,3-benzoxazol-5-yl)methyl][(2R)-1-methoxypropan-2-yl]amine]
[1]
  EC50: 200 to 1000 nM
[2]
  IC50: < 200 nM
[3]
  IC50: 200 to 1000 nM

## C[C@@H](O)CNCc1cc(C(F)(F)F)c2oc(-c3cccc(-c4ccc(F)cc4-c4nncn4C)c3)nc2c1 [AL-2, (R)-1-(((2-(4′-Fluoro-2′-(4-methyl-4H-1,2,4-triazol-3-yl)-[1,1′-biphenyl]-3-yl)-7-(trifluoromethyl)benzo[d]oxazol-5-yl)methyl)amino)propan-2-ol]
[1]
  EC50: 200 to 1000 nM
[2]
  IC50: < 200 nM
[3]
  IC50: 1000 to 10000 nM
